Source: patent US10800732B2, “Substituted malonamides and their use as antibacterial drugs” (National Taiwan University, priority 2015, dated 2020)
Converted amounts (≈) assume the structure as drawn. “And” between values parts separate entries of the source, which are not always exact repeats. Identical values can stand only once. Like-named read-outs stand apart in the source and are kept apart here.

Experiments:
[1] = tested on: S. aureus NCTC 8325; test: MIC, S. aureus NCTC 8325 (CLSI broth microdilution / agar dilution); type: cell-based, Staphylococcus aureus
[2] = tested on: S. aureus ATCC 12598; test: MIC, S. aureus ATCC 12598; type: cell-based, Staphylococcus aureus
[3] = tested on: S. epidermidis ATCC 12228; test: MIC, S. epidermidis ATCC 12228; type: cell-based; settings: S. epidermidis ATCC 12228
[4] = tested on: S. epidermidis ATCC 35984; test: MIC, S. epidermidis ATCC 35984; type: cell-based
[5] = tested on: MRSA ATCC 33592; test: MIC, MRSA ATCC 33592; type: cell-based, methicillin-resistant Staphylococcus aureus; settings: MRSA ATCC 33592
[6] = tested on: MRSA ATCC 49476; test: MIC, MRSA ATCC 49476; type: cell-based, methicillin-resistant Staphylococcus aureus; settings: MRSA ATCC 49476
[7] = tested on: MRSA SCCmec VT; test: MIC, MRSA SCCmec VT; type: cell-based, methicillin-resistant Staphylococcus aureus
[8] = tested on: HEK-293; test: Antiproliferative activity, HEK-293; type: cell-based, human; settings: for IC50: HEK-293, antiproliferative
Description: (§1) In addition to the antibacterial activities, the cytotoxic effects of these malonate derivatives on human cancer cell lines were also assessed.

[9] = tested on: K-562; test: Antiproliferative activity, K-562; type: cell-based, human; settings: for IC50: K-562, antiproliferative
Description: as §1

[10] = tested on: HT-29; test: Antiproliferative activity, HT-29; type: cell-based, human; settings: for IC50: HT-29, antiproliferative
Description: as §1

[11] = tested on: S. haemolyticus (ATCC 29970); test: MIC, S. haemolyticus; type: cell-based
[12] = tested on: S. hominis (ATCC 27844); test: MIC, S. hominis; type: cell-based
[13] = tested on: S. intermedius (ATCC 29663); test: MIC, S. intermedius; type: cell-based
[14] = tested on: S. saprophyticus (ATCC 15305); test: MIC, S. saprophyticus; type: cell-based
[15] = tested on: S. lugdunesis (NTUH isolate); test: MIC, S. lugdunesis; type: cell-based
[16] = tested on: clinical isolated VISA strain; test: MIC, VISA; type: cell-based, vancomycin-intermediate Staphylococcus aureus; settings: VISA, clinical isolate
[17] = tested on: VRSA (SJC1200); test: MIC, VRSA; type: cell-based, vancomycin-resistant Staphylococcus aureus; settings: VRSA (SJC1200)
[18] = tested on: Clinical isolated MRSAs; test: MIC90, one hundred clinical isolated MRSA strains; type: cell-based, methicillin-resistant Staphylococcus aureus; settings: one hundred clinical isolated MRSA from NTUH, concentration that inhibits 90% of strains tested
[19] = tested on: Enterococcus faecalis ATCC 19433; test: MIC, Enterococcus faecalis; type: cell-based
[20] = tested on: Enterococcus faecium ATCC 35667; test: MIC, Enterococcus faecium ATCC 35667; type: cell-based
[21] = tested on: Enterococcus faecium ATCC 19434; test: MIC, Enterococcus faecium ATCC 19434; type: cell-based
[22] = tested on: VR-E. faecium; test: MIC, VR-E. faecium; type: cell-based, vancomycin resistant Enterococcus faecium
[23] = tested on: Bacillus subtilis BCRC 10255; test: MIC, Bacillus subtilis; type: cell-based
[24] = tested on: Corynebacterium diphtheriae ATCC 11913; test: MIC, Corynebacterium diphtheriae; type: cell-based
[25] = tested on: Listeria monocytogenes ATCC 19113; test: MIC, Listeria monocytogenes; type: cell-based
[26] = tested on: Streptococcus pyogenes ATCC 19615; test: MIC, Streptococcus pyogenes; type: cell-based
[27] = tested on: Clostridium difficile 630; test: MIC, Clostridium difficile 630; type: cell-based
[28] = tested on: Clostridium difficile R20291; test: MIC, Clostridium difficile R20291; type: cell-based
[29] = tested on: Mycobacterium tuberculosis H37Ra; test: MIC, Mycobacterium tuberculosis; type: cell-based
[30] = tested on: S. aureus NCTC 8325; test: Time-kill kinetics; type: cell-based, Staphylococcus aureus; settings: for reduction in CFU: 24-h treatment period; for bactericidal / bacteriostatic classification: killing over 99.9% of inoculum within 24 hours
[31] = tested on: C. elegans; test: Toxic effects on E. coli (OP50)-fed C. elegans; type: in vivo, Caenorhabditis elegans; settings: escalating doses in S-medium
Description: FIG. 2. SC5005 protects C. elegans from S. aureus infection. Effect of SC78 and SC5005 on the survival of MSSA- or MRSA-infected C. elegans was assessed. The glp-4(bn2) C. elegans were fed on E. coli (OP50), MSSA (ATCC 29213) or MRSA (ATCC 33592) followed by exposing to SC78 or SC5005 at concentrations of 2-, 4-, 8-folds of respective MIC in S-medium. The survival of worms was monitored daily till the end of the study. The survival of animals fed with E. coli (OP50) and receiving DMSO only was served as a control to show the normal life-span of C. elegans.
Meanwhile, the toxic effects of these agents on C. elegans were also assessed. E. coli (OP50)-fed worms were exposed to escalating doses of SC78 and SC5005 in S-medium followed by monitoring of their survival daily.

[32] = tested on: S. aureus NCTC 8325; type: cell-based, Staphylococcus aureus; settings: 200-day exposure to sub-lethal concentrations
[33] = S. epidermidis (ATCC 35984), Table 3
[34] = Staphylococcus aureus, read-out: MIC
[35] = Clostridioides difficile, read-out: MIC

Structure (SMILES): O=C(Nc1ccc(Cl)c(C(F)(F)F)c1)Nc1ccc(Cl)c(C(F)(F)F)c1 [SC78]
- MIC ([1]; S. aureus (NCTC 8325), Table 3): 0.25 µg/mL (≈ 0.599 µM)
- MIC ([1]; S. aureus NCTC 8325, Table 2): 0.25 µg/mL (≈ 0.599 µM)
- MIC ([1]; Staphylococcus aureus, NCTC8325, S. aureus NCTC 8325, read-out: MIC): 0.25 µg/mL (≈ 0.599 µM)
- MIC ([2]; Staphylococcus aureus, ATCC12598, read-out: MIC): 0.25 µg/mL (≈ 0.599 µM)
- MIC ([3]; Staphylococcus epidermidis, ATCC12228, read-out: MIC): 0.25 µg/mL (≈ 0.599 µM)
- MIC [4, 33]: 0.25 µg/mL (≈ 0.599 µM)
- MIC ([4]; Staphylococcus epidermidis, ATCC35984, S. epidermidis ATCC 35984, read-out: MIC): 0.25 µg/mL (≈ 0.599 µM)
- MIC [5, 34]: 0.25 µg/mL (≈ 0.599 µM)
- MIC [6, 34]: 25 µg/mL (≈ 59.9 µM)
- MIC ([7]; Staphylococcus aureus, MRSA SCCmec VT, read-out: MIC): 0.25 µg/mL (≈ 0.599 µM)
- IC50 ([8]; Homo sapiens, HEK293, read-out: IC50): 1.13 µg/mL (≈ 2.71 µM)
- Selectivity ratio ([8]; IC50 (HEK-293)/MIC against S. aureus): 4.52
- IC50 ([9]; Homo sapiens, K562, read-out: IC50): 4.73 µg/mL (≈ 11.3 µM)
- Selectivity ratio ([9]; IC50 (K-562)/MIC against S. aureus): 18.92
- IC50 ([10]; Homo sapiens, read-out: IC50): 4.51 µg/mL (≈ 10.8 µM)
- Selectivity ratio ([10]; IC50 (HT-29)/MIC against S. aureus): 18.04
- MIC ([11]; Staphylococcus haemolyticus, ATCC29970, read-out: MIC): 0.5 µg/mL (≈ 1.2 µM)
- MIC ([12]; Staphylococcus hominis, ATCC27844, read-out: MIC): 0.25 µg/mL (≈ 0.599 µM)
- MIC ([13]; read-out: MIC): 1 µg/mL (≈ 2.4 µM)
- MIC ([14]; Staphylococcus saprophyticus, ATCC15305, read-out: MIC): 0.25 µg/mL (≈ 0.599 µM)
- MIC ([15]; read-out: MIC): 0.25 µg/mL (≈ 0.599 µM)
- MIC [16, 34]: 0.25 µg/mL (≈ 0.599 µM)
- MIC [17, 34]: 0.25 µg/mL (≈ 0.599 µM)
- MIC90 ([18]; Staphylococcus aureus, read-out: MIC90): 0.25 µg/mL (≈ 0.599 µM)
- MIC ([19]; ATCC19433, read-out: MIC): 0.25 µg/mL (≈ 0.599 µM)
- MIC ([20]; ATCC35667, read-out: MIC): 0.25 µg/mL (≈ 0.599 µM)
- MIC ([21]; ATCC19434, read-out: MIC): 0.5 µg/mL (≈ 1.2 µM)
- MIC ([22]; Enterococcus faecium, read-out: MIC): 0.25 µg/mL (≈ 0.599 µM)
- MIC ([23]; BCRC10255, read-out: MIC): 0.25 µg/mL (≈ 0.599 µM)
- MIC ([24]; ATCC11913, read-out: MIC): 0.25 µg/mL (≈ 0.599 µM)
- MIC ([25]; ATCC19113, read-out: MIC): 0.0625 µg/mL (≈ 0.15 µM)
- MIC ([26]; ATCC19615, read-out: MIC): 0.25 µg/mL (≈ 0.599 µM)
- MIC [27, 35]: 0.5 µg/mL (≈ 1.2 µM)
- MIC [28, 35]: 0.25 µg/mL (≈ 0.599 µM)
- MIC ([29]; read-out: MIC): 1 µg/mL (≈ 2.4 µM)
- reduction in CFU ([30]; 8-folds of MIC): over 99.9%
- bactericidal / bacteriostatic classification [30]: bactericidal
- survival of worms fed with OP50 (toxicity) [31]: significantly decreased
- resistance after consecutive exposure [32]: no resistance was observed

Structure (SMILES): O=C(Nc1ccc(Cl)c(C(F)(F)F)c1)C(CCCl)C(=O)Nc1ccc(Cl)c(C(F)(F)F)c1 [SC5005]
- MIC ([1]; MSSA NCTC 8325, Table 6): 0.5 µg/mL (≈ 0.958 µM)
- MIC ([1]; S. aureus (NCTC 8325), Table 3): 0.5 µg/mL (≈ 0.958 µM)
- MIC ([1]; S. aureus NCTC 8325): 0.5 µg/mL (≈ 0.958 µM)
- MIC ([1]; S. aureus NCTC 8325, Table 2): 0.5 µg/mL (≈ 0.958 µM)
- MIC [2]: 0.5 µg/mL (≈ 0.958 µM)
- MIC [3]: 0.5 µg/mL (≈ 0.958 µM)
- MIC [4, 33]: 0.5 µg/mL (≈ 0.958 µM)
- MIC ([4]; S. epidermidis ATCC 35984): 0.5 µg/mL (≈ 0.958 µM)
- MIC [5]: 0.5 µg/mL (≈ 0.958 µM)
- MIC ([5]; Table 6): 0.5 µg/mL (≈ 0.958 µM)
- MIC [6]: 0.5 µg/mL (≈ 0.958 µM)
- MIC ([7]; MRSA SCCmec VT): 0.5 µg/mL (≈ 0.958 µM)
- MIC ([7]; SCCmec VT, Table 6): 0.5 µg/mL (≈ 0.958 µM)
- IC50 [8]: 16.79 µg/mL (≈ 32.2 µM)
- IC50 [9]: 20.23 µg/mL (≈ 38.8 µM)
- IC50 [10]: 14.56 µg/mL (≈ 27.9 µM)
- MIC [11]: 1 µg/mL (≈ 1.92 µM)
- MIC [12]: 0.25 µg/mL (≈ 0.479 µM)
- MIC [13]: 1 µg/mL (≈ 1.92 µM)
- MIC [14]: 0.5 µg/mL (≈ 0.958 µM)
- MIC [15]: 0.5 µg/mL (≈ 0.958 µM)
- MIC [16]: 0.5 µg/mL (≈ 0.958 µM)
- MIC [17]: 0.5 µg/mL (≈ 0.958 µM)
- MIC90 [18]: 0.5 mg/L and 0.5^b mg/L
- MIC [19]: 0.5 µg/mL (≈ 0.958 µM)
- MIC [20]: 0.5 µg/mL (≈ 0.958 µM)
- MIC [21]: 1 µg/mL (≈ 1.92 µM)
- MIC [22]: 0.5 µg/mL (≈ 0.958 µM)
- MIC [23]: 0.5 µg/mL (≈ 0.958 µM)
- MIC [24]: 0.5 µg/mL (≈ 0.958 µM)
- MIC [25]: 0.125 µg/mL (≈ 0.24 µM)
- MIC [26]: 0.5 µg/mL (≈ 0.958 µM)
- MIC [27]: 0.5 µg/mL (≈ 0.958 µM)
- MIC [28]: 0.5 µg/mL (≈ 0.958 µM)
- MIC [29]: 16 µg/mL (≈ 30.7 µM)
- reduction in CFU ([30]; 4-folds of MIC): 99.91%
- reduction in CFU ([30]; 8-folds of MIC): 99.95%
- bactericidal / bacteriostatic classification [30]: bactericidal
- survival of worms fed with OP50 (toxicity) [31]: didn't affect the survival
- resistance after consecutive exposure [32]: no resistance was observed
